In patent publication US8158106B2, “Particle immobilized coatings and uses thereof” (Surmodics, Inc., priority 2001, dated 2012):

How the values were obtained:
[1] = Entrapment of microparticles disposed on pre-irradiated photopolymer matrix spots, presence after washes; type: physicochemical; details: 9.9 μm silica microparticles disposed on irradiated spots, compound 2.5 mg/ml
Source text: Different polymeric materials were used to immobilize microparticles on a substrate. First, different polymers were disposed and treated on a substrate to form matrices. This was followed by disposing the microparticles on the substrates which were immobilized via the matrices. Four different photoreactive polymers were used to immobilize 9.9 μm diameter silica microparticles on substrates. […] Pat. No. 5,714,360 to Swan et al., issued Feb., 3, 1998, commonly owned by the assignee of the present invention, the disclosure of which is incorporated herein in its entirety), a non-polymeric photoreactive compound, was evaluated. […] Each solution was printed with 25 gauge disposable needles (PrecisionGlide Needles, Becton Dickinson and Co., Franklin Lakes, N.J.) and an x-y programmable stage (CAMM-3, Roland Digital Group, Irvine, Calif.) onto glass microscope slides which had been functionalized with silanes, as in Example 1, and onto acrylic slides (Cadillac Plastics, Minneapolis, Minn.). This printing forms a pattern of approximately 300-400 μm diameter spots on the substrates. The patterned slides were irradiated for two minutes with ultraviolet light as detailed in Example 1. After irradiation, 500 μl of an aqueous solution of 2 mg/ml 9.9 μm diameter silica microparticles (S[…], Bangs Laboratories, Fisher, Ind.) was placed over the patterned area for one minute to allow the microparticles to associate and become entrapped in the polymer matrices. The slides were then rinsed with 0.1% v/v Tween-20 aqueous solution to remove any free microparticles. Following this, the array was washed to remove loosely bound microspheres. The array was washed three times with 1×PBS (pH 7.4) with 0.1% v/v Tween-20, and then rinsed with deionized water. […] After imaging, the arrays were incubated in a solution of 0.1M TRIS and 50 mM ethanolamine (T/E) wash buffer for 1 hour at 50° C., followed by two rinses with deionized water. The microarrays were then incubated in a solution of 4×SSC/0.1% SDS for two hours at 50° C. and rinsed in deionized water. This was the final step at which imaging was done to evaluate the respective polymers.

[2] = Printed slurries of photoreactive compound and microparticles, presence after washes; type: physicochemical; details: slurry of 2.5 mg/ml compound and 20 mg/ml 9.9 μm silica microspheres printed, then irradiated
Experimental: Slurries were prepared, each containing different polymers and microparticles. These slurries were then disposed on a substrate and treated to form matrices in which microparticles were immobilized. Different polymeric materials were used to immobilize microparticles on a substrate. Four different photoreactive polymers were used to immobilize 9.9 μm diameter silica microparticles on substrates: […] BBDQ (as described in Example 4) a non-polymeric photoreactive material was also used in this Example. […] Each mixture was printed with 25 gauge disposable needles (PrecisionGlide Needles, Becton Dickinson and Co., Franklin Lakes, N.J.) and an x-y programmable stage (CAMM-3, Roland Digital Group, Irvine, Calif.) onto glass microscope slides which had been functionalized with silanes, as detailed in Example 1 and onto acrylic slides (Cadillac Plastics, Minneapolis, Minn.). This printing forms a pattern of approximately 300-400 μm diameter spots on the substrates. The coated substrates were irradiated for two minutes with ultraviolet light as detailed in Example 1. The coated substrates were then imaged with a fluorescence microscope (Olympus BX 60, Tokyo, Japan), to ensure that patterning was successful. Following this, the coated substrate was washed to remove any loosely bound microspheres. The coated substrates were washed three times with 1×PBS (pH 7.4) with 0.1% v/v Tween-20, rinsed with deionized water. At this point, each was again imaged with the fluorescence microscope to determine microsphere loss in the various photoreactive polymer matrices. After imaging, the coated substrates were incubated in a solution of T/E wash buffer for 1 hour at 50° C., followed by two rinses with deionized water. The coated substrates were then incubated in a solution of 4×SSC/0.1% SDS for two hours at 50° C. and rinsed in deionized water.

C[N+](C)(CC[N+](C)(C)Cc1ccc(C(=O)c2ccccc2)cc1)Cc1ccc(C(=O)c2ccccc2)cc1.[Br-].[Br-] [BBDQ, ethylene(4-benzoylbenzyldimethylammonium)dibromide]
Presence of microparticles after PBS-Tween wash ([1]; Acrylic substrate): Some loss
Presence of microparticles after high salt wash (4X SSC) ([1]; Acrylic substrate): Complete loss
Presence of microparticles before washes ([1]; Acrylic substrate): Present
Presence of microparticles after PBS-Tween wash ([1]; Glass substrate): Some loss
Presence of microparticles after high salt wash (4X SSC) ([1]; Glass substrate): Complete loss
Presence of microparticles before washes ([1]; Glass substrate): Present
Presence of microparticles after PBS-Tween wash ([2]; Acrylic substrate): No loss
Presence of microparticles after high salt wash (4X SSC) ([2]; Acrylic substrate): Complete loss
Presence of microparticles before washes ([2]; Acrylic substrate): Present
Presence of microparticles after PBS-Tween wash ([2]; Glass substrate): No loss
Presence of microparticles after high salt wash (4X SSC) ([2]; Glass substrate): Complete loss
Presence of microparticles before washes ([2]; Glass substrate): Present
